Test results from patent US8158628B2, “Sulfonylated 1,2,3,4-tetrahydropyrrolo[1,2-a]pyrazine compounds and their use as pharmaceuticals” (Gruenenthal GmbH, priority 2009, dated 2012).

Experiments:
[1] = target: T1, human B1R (Homo sapiens, UniProt P46663); assay: FLIPR Ca2+ functional assay, B1R antagonism, human B1R in CHO K1 cells; type: cell-based; details: test substance 10 μM; hB1R CHO K1 cells; agonist Lys-Des-Arg9 bradykinin at EC80; % of maximum achievable inhibition
T1 construct: expressed in transfected cells; host or cells: CHO K1 cells (Chinese hamster ovary), stably transfected
T1 sequence (P46663 1-353): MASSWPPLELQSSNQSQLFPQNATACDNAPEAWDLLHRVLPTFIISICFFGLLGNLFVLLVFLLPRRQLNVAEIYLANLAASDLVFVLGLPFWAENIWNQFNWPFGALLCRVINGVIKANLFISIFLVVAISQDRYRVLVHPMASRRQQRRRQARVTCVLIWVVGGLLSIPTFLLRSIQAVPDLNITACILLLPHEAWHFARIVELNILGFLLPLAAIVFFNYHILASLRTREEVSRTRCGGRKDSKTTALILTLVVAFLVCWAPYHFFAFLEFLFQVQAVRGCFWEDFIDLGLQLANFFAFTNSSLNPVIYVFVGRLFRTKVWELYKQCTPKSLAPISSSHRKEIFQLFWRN
Description: The agonistic or antagonistic action of substances on the bradykinin 1 receptor (B1R) of the human and rat species can be quantified with ectopically expressing cell lines (CHO K1 cells) and with the aid of a Ca^2+-sensitive dye (Fluo-4) using a fluorescent imaging plate reader (FLIPR). The value in % activation is based on the Ca^2+ signal after addition of Lys-Des-Arg^9 bradykinin (0.5 nM) or Des-Arg^9 bradykinin (100 nM). Antagonists lead to a suppression of the Ca^2+ influx following administration of the agonist. The % inhibition in comparison with the maximum achievable inhibition is indicated.
1. Functional Investigation on the Bradykinin 1 Receptor (B1R) The agonistic or antagonistic action of substances can be determined on the bradykinin 1 receptor (B1R) of the human and rat species with the following assay. According to this assay, the Ca^2+ inflow through the channel is quantified with the aid of a Ca^2+-sensitive dye (Fluo-4 type, Molecular Probes Europe BV, Leiden, Netherlands) in a fluorescent imaging plate reader (FLIPR, Molecular Devices, Sunnyvale, USA). 2. Method: Chinese hamster ovary cells (CHO K1 cells) which are stably transfected with the human B1R gene (hB1R cells) or the B1R gene of the rat (rB1R cells) are used. For functional investigations these cells are plated-out onto black 96-well plates with a clear base (BD Biosciences, Heidelberg, Germany or Greiner, Frickenhausen, Germany) in a density of 20,000-35,000 cells/well. Overnight the cells are incubated at 37° C. and 5% CO2 in culture medium (hB1R cells: Ham's Nutrient Mixture F12, Gibco Invitrogen GmbH, Karlsruhe, Germany or DMEM, Sigma-Aldrich, Taufkirchen, Germany; rB1R cells: D-MEM/F12, Gibco Invitrogen, Karlsruhe, Germany) with 10 vol. % FBS (foetal bovine serum, Gibco Invitrogen GmbH, Karlsruhe, Germany or PAN Biotech GmbH, Aidenbach, Germany).
On the following day the cells are loaded with 2.13 μM Fluo-4 (Molecular Probes Europe BV, Leiden, Netherlands) in HBSS buffer (Hank's buffered saline solution, Gibco Invitrogen GmbH, Karlsruhe, Germany) with 2.5 mM probenecid (Sigma-Aldrich, Taufkirchen, Germany) and 10 mM HEPES (Sigma-Aldrich, Taufkirchen, Germany) for 60 min at 37° C. The plates are subsequently washed twice with HBSS buffer, and HBSS buffer which additionally contains 0.1% BSA (bovine serum albumin; Sigma-Aldrich, Taufkirchen, Germany), 5.6 mM glucose and 0.05% gelatine (Merck KGaA, Darmstadt, Germany) is added. After a further incubation of 20 minutes at RT, the plates are inserted into the FLIPR for Ca^2+ measurement. Alternatively they are washed with buffer A (15 mM HEPES, 80 mM NaCl, 5 mM KCl, 1.2 mM CaCl2, 0.7 mM MgSO4, 2 g/l glucose, 2.5 mM probenecid) and loaded with buffer A with added 2.5 μM Fluo-4 and 0.025% Pluronic F127 (Sigma-Aldrich, Taufkirchen, Germany). The cells are then washed twice with buffer A and incubated for 30 minutes with buffer A, which additionally contains 0.05% BSA and 0.05% gelatine, at RT and then used for Ca^2+ measurement in the FLIPR. The Ca^2+-dependent fluorescence is measured here before and after addition of substances (λex=488 nm, λem=540 nm). The quantification is performed by measuring the highest fluorescence intensity (FC, fluorescence counts) over time.
The FLIPR protocol comprises two additions of substance. Test substances (10 μM) are first pipetted onto the cells and the Ca^2+ inflow is compared with the control (hB1R: Lys-Des-Arg^9 bradykinin >=50 nM; rB1R: Des-Arg^9 bradykinin 10 μM). The value in % activation based on the Ca^2+ signal after addition of Lys-Des-Arg^9 bradykinin (>=50 nM) or Des-Arg^9 bradykinin (10 μM) is obtained therefrom. After incubation for 10-20 minutes, Lys-Des-Arg^9 bradykinin (hB1R) or Des-Arg^9 bradykinin (rB1R) is applied in the EC80 concentration and the inflow of Ca^2+ is likewise determined.
Antagonists lead to a suppression of the Ca^2+ inflow. The % inhibition in comparison with the maximum achievable inhibition is calculated. […]

[2] = target: T2, B1R of the rat (Rattus norvegicus, UniProt P97583); assay: FLIPR Ca2+ functional assay, B1R antagonism, rat B1R in CHO K1 cells; type: cell-based; details: test substance 10 μM; rB1R CHO K1 cells; agonist Des-Arg9 bradykinin at EC80; % of maximum achievable inhibition
T2 construct: expressed in transfected cells; host or cells: CHO K1 cells (Chinese hamster ovary), stably transfected
T2 sequence (P97583 1-337): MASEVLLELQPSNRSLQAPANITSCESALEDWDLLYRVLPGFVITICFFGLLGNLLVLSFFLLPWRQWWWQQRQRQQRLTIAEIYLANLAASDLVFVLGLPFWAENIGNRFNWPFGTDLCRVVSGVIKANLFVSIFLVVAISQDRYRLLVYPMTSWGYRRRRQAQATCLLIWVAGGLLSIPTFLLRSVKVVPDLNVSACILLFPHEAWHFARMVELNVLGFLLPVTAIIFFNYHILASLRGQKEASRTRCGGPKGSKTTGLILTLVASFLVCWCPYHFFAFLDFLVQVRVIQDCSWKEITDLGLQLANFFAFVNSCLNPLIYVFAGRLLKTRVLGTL
How it was run: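 Stably transfected CHO K1 cells loaded with Fluo-4; Ca2+ fluorescence read on FLIPR (ex 488/em 540 nm). Compound preincubated 10-20 min, then agonist at EC80: Lys-Des-Arg9 bradykinin (human) or Des-Arg9 bradykinin (rat). % inhibition vs maximal inhibition; IC50 from concentration series, n=2-3, N>=2.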

inhibition at 10 µM [1] [%] | inhibition at 10 µM [2] [%] | SMILES
99.9 | 98.5 | Cc1cccc(Cl)c1S(=O)(=O)N1CCn2cccc2C1COCC(=O)N(C)CCC1CCN(c2ccncc2)CC1 (centres unmarked) [Example 16, 2-((2-(2-Chloro-6-methylphenylsulfonyl)-1,2,3,4-tetrahydropyrrolo[1,2-a]pyrazin-1-yl)methoxy)-N-methyl-N-(2-(1-(pyridin-4-yl)piperidin-4-yl)ethyl)acetamide]
99.9 | 94.8 | COc1cc(C)c(S(=O)(=O)N2CCn3cccc3C2CC(=O)N2CCC3(CC2)CCN(c2ccncc2)C3)c(C)c1 (centres unmarked) [Example 18, 2-(2-(4-Methoxy-2,6-dimethylphenylsulfonyl)-1,2,3,4-tetrahydro-pyrrolo[1,2-a]pyrazin-1-yl)-1-(2-(pyridin-4-yl)-2,8-diazaspiro[4.5]decan-8-yl)-ethanone]
99.6 | 113 | COc1cc(C)c(S(=O)(=O)N2CCn3cccc3C2COCC(=O)N2CCC3(CCNC3)CC2)c(C)c1 (centres unmarked) [Example 22, 2-((2-(4-Methoxy-2,6-dimethylphenylsulfonyl)-1,2,3,4-tetrahydro-pyrrolo[1,2-a]pyrazin-1-yl)methoxy)-1-(2,8-diazaspiro[4.5]decan-8-yl)ethanone]
96 | 103 | Cc1cc(S(=O)(=O)N2CCn3cccc3C2CC(=O)NC2CCc3cc(CN4CCCCC4)ccc3C2)c(C)cc1Cl (centres unmarked) [Example 25, 2-(2-(4-chloro-2,5-dimethylphenylsulfonyl)-1,2,3,4-tetrahydropyrrolo[1,2-a]pyrazin-1-yl)-N-(6-(piperidin-1-ylmethyl)-1,2,3,4-tetrahydronaphthalen-2-yl)acetamide]
98.9 | 102 | O=C(CC1c2cccn2CCN1S(=O)(=O)c1ccc(Cl)c(Cl)c1)NC1CCc2cc(CN3CCCCC3)ccc2C1 (centres unmarked) [Example 26, 2-(2-(3,4-dichlorophenylsulfonyl)-1,2,3,4-tetrahydropyrrolo[1,2-a]pyrazin-1-yl)-N-(6-(piperidin-1-ylmethyl)-1,2,3,4-tetrahydronaphthalen-2-yl)acetamide]
99.5 | 100 | O=C(CC1c2cccn2CCN1S(=O)(=O)c1cccc(Cl)c1Cl)NC1CCc2cc(CN3CCCCC3)ccc2C1 (centres unmarked) [Example 28, 2-(2-(2,3-dichlorophenylsulfonyl)-1,2,3,4-tetrahydropyrrolo[1,2-a]pyrazin-1-yl)-N-(6-(piperidin-1-ylmethyl)-1,2,3,4-tetrahydronaphthalen-2-yl)acetamide]
99.8 | 102 | Cc1ccc(S(=O)(=O)N2CCn3cccc3C2CC(=O)NC2CCc3cc(CN4CCCCC4)ccc3C2)cc1 (centres unmarked) [Example 29, N-(6-(piperidin-1-ylmethyl)-1,2,3,4-tetrahydronaphthalen-2-yl)-2-(2-tosyl-1,2,3,4-tetrahydropyrrolo[1,2-a]pyrazin-1-yl)acetamide]

The remaining lines, values behind:

SMILES | inhibition at 10 µM [1] [%] | inhibition at 10 µM [2] [%]
COc1cc(C)c(S(=O)(=O)N2CCn3cccc3C2CC(=O)NC2CCNCC2(C)C)c(C)c1 (centres unmarked) [Example 17, N-(3,3-Dimethylpiperidin-4-yl)-2-(2-(4-methoxy-2,6-dimethylphenylsulfonyl)-1,2,3,4-tetrahydropyrrolo[1,2-a]pyrazin-1-yl)acetamide] | 97.4 | 99.2
O=C(COCC1c2cccn2CCN1S(=O)(=O)c1ccccc1C(F)(F)F)N1CCC2(CC1)CCN(c1ccncc1)C2 (centres unmarked) [Example 21, 1-(2-(Pyridin-4-yl)-2,8-diazaspiro[4.5]decan-8-yl)-2-((2-(2-(trifluoromethyl)phenylsulfonyl)-1,2,3,4-tetrahydropyrrolo[1,2-a]pyrazin-1-yl)methoxy)ethanone] | 100 | 113
COc1cc(C)c(S(=O)(=O)N2CCn3cccc3C2COCC(=O)N2[C@@H]3CC[C@H]2C[C@H](Oc2ccncc2)C3)c(C)c1 (stereo partly drawn) [Example 23, 2-((2-(4-Methoxy-2,6-dimethylphenylsulfonyl)-1,2,3,4-tetrahydropyrrolo[1,2-a]pyrazin-1-yl)methoxy)-1-((1R,3S,5S)-3-(pyridin-4-yloxy)-8-azabicyclo[3.2.1]octan-8-yl)ethanone] | 100 | 108
COc1cc(C)c(S(=O)(=O)N2CCn3cccc3C2COCC(=O)N2CCC(OCCN3CCCC3)(c3cccnc3)CC2)c(C)c1 (centres unmarked) [Example 24, 2-((2-(4-Methoxy-2,6-dimethylphenylsulfonyl)-1,2,3,4-tetrahydropyrrolo[1,2-a]pyrazin-1-yl)methoxy)-1-(4-(pyridin-3-yl)-4-(2-(pyrrolidin-1-yl)ethoxy)piperidin-1-yl)ethanone] | 99.9 | 114
O=C(CC1c2cccn2CCN1S(=O)(=O)c1ccccc1)NC1CCc2cc(CN3CCCCC3)ccc2C1 (centres unmarked) [Example 27, 2-(2-(phenylsulfonyl)-1,2,3,4-tetrahydropyrrolo[1,2-a]pyrazin-1-yl)-N-(6-(piperidin-1-ylmethyl)-1,2,3,4-tetrahydronaphthalen-2-yl)acetamide] | 100 | 102
O=C(CC1c2cccn2CCN1S(=O)(=O)c1cccc(C(F)(F)F)c1)NC1CCc2cc(CN3CCCCC3)ccc2C1 (centres unmarked) [Example 30, N-(6-(piperidin-1-ylmethyl)-1,2,3,4-tetrahydro-naphthalen-2-yl)-2-(2-(3-(trifluoromethyl)-phenylsulfonyl)-1,2,3,4-tetrahydropyrrolo-[1,2-a]pyrazin-1-yl)acetamide] | 99.8 | 102
